According to US8845999B2 (The Regents of the University of California, priority 2005, dated 2014):
Like-named read-outs stand apart in the source and are kept apart here. Values belong to the molecule of their own block, whether it stands above or below them.

What was measured:
Hexokinase [1] = test system: T1, Hexokinase; assay: Hexokinase kinetics (Bessel 1972); type: biochemical; conditions: from Table 2
T1 construct: Hexokinase Ki; other: Bessel (1972); Hexokinase Vmax; D-glucose = 1; hexokinase maximum velocity lower than that for D-glucose

Hexokinase [2] = assay: Hexokinase kinetics (Bessel 1972); type: biochemical
Hexokinase [3] = test system: T1, Hexokinase; parameters: Hexokinase Vmax: unit not given here; conditions: Bessel (1972), cited from earlier work; for Hexokinase Vmax: D-glucose = 1
human GLUT1 = target: T2, human GLUT1 (Homo sapiens, UniProt P11166); conditions: cited from earlier work
T2 construct: host or cells: human erythrocytes (endogenous transporter)
T2 sequence (P11166 1-492): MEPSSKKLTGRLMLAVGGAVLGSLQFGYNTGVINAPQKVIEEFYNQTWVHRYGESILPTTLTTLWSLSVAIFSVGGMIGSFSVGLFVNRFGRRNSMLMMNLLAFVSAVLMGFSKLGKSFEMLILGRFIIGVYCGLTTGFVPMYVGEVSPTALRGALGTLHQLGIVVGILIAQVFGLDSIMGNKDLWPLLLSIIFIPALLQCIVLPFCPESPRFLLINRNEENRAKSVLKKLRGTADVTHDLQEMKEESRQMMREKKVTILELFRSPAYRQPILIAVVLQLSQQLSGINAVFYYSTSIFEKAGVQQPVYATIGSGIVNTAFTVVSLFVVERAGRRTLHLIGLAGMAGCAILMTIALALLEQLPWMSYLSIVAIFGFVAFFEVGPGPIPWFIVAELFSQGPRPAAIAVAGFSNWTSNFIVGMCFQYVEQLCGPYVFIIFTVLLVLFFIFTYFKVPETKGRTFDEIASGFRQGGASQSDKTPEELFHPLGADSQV

SGLTs [4] = assay: Whole body PET scan of human subjects; type: in vivo
Method: For a 50-70 kg person, 10 mC of methyl 4-deoxy-4-[^18F]fluoro-D-glucopyranoside dissolved in <1 ml saline is injected intravenously, and the distribution of the tracer is followed dynamically in whole body PET scans for up to 2 hours (up to 8 scans at different time intervals). SGLT activity in organs and tissues is determined from the tracer uptake. The anatomical location of tracer uptake in both normal subjects and cancer patients is determined using CT scans.
FIGS. 4 and 5 are nonlimiting examples of 2-[^18F]-FDG and Methyl 4[^18F]-FDG scans, respectively, of the same human subject.
FIG. 6 is a nonlimiting example of a whole body PET scan of a patient with Glucose-Galactose-Malabsorption (missing functional SGLT1 in their body), after being injected with Me-[18F]-4FDG.

SGLTs [5] = assay: MicroPET images of rat's brain after intravenous injection of radiofluorinated glucose derivatives; conditions: same animal, images 50-70 min after intravenous injection, FIG. 7
Method: A bolus of a radiolabeled tracer is administered to a non-human primate, rodent, or other non-human mammal, intravenously or orally, and the distribution of tracer transport activity is followed by radiographic means, e.g., PET, microPET and/or SPECT. For PET, an intravenous dose of the tracer contains ˜200 μC/Kg (body weight) methyl 4-[^18F]fluoro-4-deoxy-D-glucopyranoside dissolved in <1 ml saline. […] The identity of each organ and tissue taking up the tracer is confirmed by CT scans.
FIG. 7 presents MicroPET images of a rat's brain after injection of radiofluorinated glucose derivatives. […] These experiments were performed in the same animal at three different occasions. […] The images were acquired using a Concorde 220 microPET camera (Siemens/CTI, Knoxville, Tenn.). The animal was kept under anesthesia with 2% isoflurane in oxygen during all three experiments. Injectable solutions of all radiotracers were prepared in normal saline (0.9% NaCl).

[6] = Preliminary microPET studies of brain uptake; conditions: rodent
SGLT1 [7] = target: T3, SGLT1 (Homo sapiens, UniProt P13866); assay: Affinity for SGLT1; type: biochemical
T3 sequence (P13866 1-664): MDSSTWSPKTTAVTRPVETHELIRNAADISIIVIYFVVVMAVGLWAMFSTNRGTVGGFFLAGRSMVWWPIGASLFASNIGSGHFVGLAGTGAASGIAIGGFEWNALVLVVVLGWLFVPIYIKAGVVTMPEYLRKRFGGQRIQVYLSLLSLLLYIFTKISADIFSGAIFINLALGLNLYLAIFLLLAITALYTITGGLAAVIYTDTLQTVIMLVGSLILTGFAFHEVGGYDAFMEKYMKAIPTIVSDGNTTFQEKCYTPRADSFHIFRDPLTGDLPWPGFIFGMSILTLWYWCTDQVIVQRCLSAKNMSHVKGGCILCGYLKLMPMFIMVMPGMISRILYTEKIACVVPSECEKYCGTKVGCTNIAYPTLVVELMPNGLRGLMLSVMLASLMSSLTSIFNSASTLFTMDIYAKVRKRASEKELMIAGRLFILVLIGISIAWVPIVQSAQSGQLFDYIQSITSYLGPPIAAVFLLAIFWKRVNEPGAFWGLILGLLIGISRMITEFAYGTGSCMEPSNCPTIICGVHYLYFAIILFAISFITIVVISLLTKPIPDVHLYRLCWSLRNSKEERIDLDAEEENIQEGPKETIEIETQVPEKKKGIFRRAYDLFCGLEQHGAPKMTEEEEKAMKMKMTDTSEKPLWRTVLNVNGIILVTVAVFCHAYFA
Excerpt: A [^11C]-methyl-D-glucoside has been synthesized and biologically evaluated as a tracer of sodium dependent glucose transporters. […] A commentary on this paper was published in the same issue of the journal. […] In addition, three ^18F-fluoro-n-alkyl glucosides have been synthesized and evaluated as potential substrates for sodium/glucose cotransporters. […] There are limitations with these probes in that the lifetime of [^11C] is shorter than that of [^18F]
Optionally, additional information can be obtained by also administering one or more pharmacological or other agents to the animal, and monitoring the effect of the agent(s) on tracer uptake and distribution. Nonlimiting examples of suitable agents, include sodium ion, glucose, galactose, and phlorizin. […] Any therapeutic agent can also be used to evaluate its potential role and in vivo activity on SGLTs in various organs, using in vivo competitive kinetics with the radiolabeled tracer.

[8] = test system: sodium-dependent glucose transporters (SGLTs); assay: Micro-PET tests in rodents and PET tests in Vervet monkeys and human volunteers: substrate specificity; type: in vivo; conditions: both anomeric forms
Excerpt: A nonlimiting example of a radiolabeled tracer according to the present invention is methyl 4-deoxy-4-[^18F]fluoro-D-glucopyranoside (“Me-4-[^18F]-FDG”), synthesized in either of its two anomeric forms, alpha-methyl 4-[^18F]-FDG and beta-methyl 4-[^18F]-FDG, or as a racemic mixture. […] For example, Me-4-[^18F]-FDG is not a substrate for GLUT1 in the blood brain barrier. It is a novel, high affinity tracer for SGLTs in those cells expressing SGLTs.

SGLTs [9] = assay: Whole body PET scan of Vervet monkey; type: in vivo; conditions: FIG. 3
Excerpt: Scans can be conducted both with and without administering one or more pharmacological agents, e.g., sodium, phlorizin, glucose, galactose, etc.
FIG. 3 is a nonlimiting example of a methyl 4-[^18F]-FDG whole body PET scan of a Vervet monkey.

SGLT1 [10] = conditions: pumped into cells by SGLT1; cited from earlier work
[11] = substrate: O=C[C@H](O)[C@@H](O)[C@@H](O)[C@H](O)CO; assay: Kinetics of halogenated hexose transport by human SGLT1 expressed in Xenopus laevis oocytes, electrophysiological assay; type: cell-based; conditions: other: human SGLT1 in Xenopus laevis oocytes
Excerpt: (§1) We have expressed human SGLT1 in the Xenopus laevis oocyte expression system and measured the kinetics of halogenated hexose transport using standard electrophysiological assays (see Diez-Sampedro et al. J. Biological Chemistry, 2001, 276: 49188-49194). Table 2 presents kinetic measurements of the SGLT1 affinities of various sugars. […] “Km.” is the Michaelis-Menten constant and refers to the ability of a sugar to be a substrate for a specific enzyme or transporter. The lower the Km, the better the substrate. “Vmax” refers to the maximum velocity of transport (or enzymatic reaction). Km is the concentration of substrate at ½ Vmax. “Ki” is an inhibition constant for a specific enzyme or transporter, obtained by competitive kinetics against a known substrate.

[12] = substrate: O=C[C@H](O)[C@@H](O)[C@H](O)[C@H](O)CO; assay: as above; type: cell-based; conditions: other: human SGLT1 in Xenopus laevis oocytes
Excerpt: as §1

[13] = Barnett et al. 1973, read-out: inhibitor constants for sugar uptakes into human erythrocytes
[14] = Barnett et al. (1973), read-out: GLUT1 Ki

Molecule: OCC1OC(O)C(O)C(F)C1O (stereo not drawn)
hexokinase affinity lower than that for D-glucose (Hexokinase [1]): 400 fold
hexokinase maximum velocity lower than that for D-glucose (Hexokinase [1]): 10 fold
substrate quality for hexokinase (Hexokinase [2]): poor substrates for hexokinase
Hexokinase Vmax (Hexokinase [3]): 0.1
Ki (Hexokinase [3]): 70 mM
Ki (human GLUT1; [13]): ~7 mM
Ki (human GLUT1; [14]): 7 mM

Molecule: O=C[C@H](O)[C@@H](O)[C@@H](O)[C@H](O)CF
Ki (human GLUT1; [13]): ~7 mM

Molecule: OC[C@H]1OC(F)[C@H](O)[C@@H](O)[C@@H]1O (stereo partly drawn) [1-F-1-deoxy-D-glucose, 1-[^18F]fluoro-1-deoxy-D-glucose]
Ki (human GLUT1; [14]): 15 mM

substrate quality for hexokinase (Hexokinase [2]): poor substrates for hexokinase
Molecule: OC[C@H]1OC([18F])[C@H](O)[C@@H](O)[C@@H]1O (stereo partly drawn) [1-F-1-deoxy-D-glucose, 1-[^18F]fluoro-1-deoxy-D-glucose]

Molecule: OC[C@H]1OC(O)[C@H](F)[C@@H](O)[C@@H]1O (stereo partly drawn) [2-F-2-deoxy-D-glucose, 2-deoxy-2-[^18F]fluoro-D-glucose]
Ki (Hexokinase [3]): 0.2 mM
Ki (human GLUT1; [14]): 3.6 mM

Molecule: OC[C@H]1OC(O)[C@H]([18F])[C@@H](O)[C@@H]1O (stereo partly drawn) [2-F-2-deoxy-D-glucose, 2-deoxy-2-[^18F]fluoro-D-glucose]
Hexokinase Vmax (Hexokinase [3]): 0.5
accumulation in the brain and elimination into the urinary bladder, PET (SGLTs [4]; normal human subject, FIGS. 4 and 5): accumulated in the brain and eliminated into the urinary bladder
brain uptake / crossing of the blood-brain barrier, microPET (SGLTs [5]): cross the blood-brain barrier and accumulate in the brain

Molecule: O=C[C@H](O)[C@@H](O)[C@H](F)[C@H](O)CO [4-F-4-deoxy-D-glucose]
Ki (Hexokinase [3]): 84 mM

Molecule: O=C[C@H](O)[C@@H](O)[C@H]([18F])[C@H](O)CO [4-F-4-deoxy-D-glucose]
hexokinase affinity lower than that for D-glucose (Hexokinase [1]): 400 fold
hexokinase maximum velocity lower than that for D-glucose (Hexokinase [1]): 10 fold
substrate quality for hexokinase (Hexokinase [2]): poor substrates for hexokinase
Hexokinase Vmax (Hexokinase [3]): 0.1
uptake into brain, microPET [6]: taken up rapidly into rodent brains

Molecule: O=C[C@H](O)[C@@H](O)[C@H](O)[C@H](O)CF [6-F-4-deoxy-D-glucose]
Ki (human GLUT1; [13]): 1.3 mM
Ki (human GLUT1; [14]): 1 mM

Molecule: O=C[C@H](O)[C@@H](O)[C@H](O)[C@H](O)C[18F] [6-F-4-deoxy-D-glucose]
substrate quality for hexokinase (Hexokinase [2]): poor substrates for hexokinase
Hexokinase Vmax (Hexokinase [3]): 0

Molecule: O=C[C@H](O)[C@@H](O)[C@@H](O)[C@H](O)CO [D-galactose]
Ki (human GLUT1; [14]): 90 mM

Molecule: O=C[C@H](O)[C@@H](O)[C@H](O)[C@H](O)CO [D-glucose]
Hexokinase Vmax (Hexokinase [3]): 1
Ki (Hexokinase [3]): 0.2 mM
Ki (human GLUT1; [13]): ~7 mM
Ki (human GLUT1; [14]): 6 mM

Molecule: COC1O[C@H](CO)[C@@H](F)[C@H](O)[C@H]1O (stereo partly drawn) [Me-4-[^18F]-FDG, methyl 4-deoxy-4-[^18F]fluoro-D-glucopyranoside]
Km (SGLT1 [7]): 50 µM

Molecule: COC1O[C@H](CO)[C@@H]([18F])[C@H](O)[C@H]1O (stereo partly drawn) [Me-4-[^18F]-FDG, methyl 4-deoxy-4-[^18F]fluoro-D-glucopyranoside]
substrate for SGLTs / GLUTs [8]: substrate for sodium-dependent glucose transporters (SGLTs), but not a substrate for GLUTs
tracer distribution, whole body PET (SGLTs [9]): accumulated in the liver, heart, and kidneys, but not in the brain and little in the urinary bladder
affinity for SGLT1 (SGLT1 [7]): 50 µM
excretion into the urinary bladder, whole body PET (SGLTs [4]; patient with Glucose-Galactose-Malabsorption (missing functional SGLT1), FIG. 6): excretion of the tracer into the urinary bladder
brain uptake / crossing of the blood-brain barrier, microPET (SGLTs [5]): lack of brain uptake

Molecule: CO[C@H]1O[C@H](CO)[C@@H](O)[C@H](O)[C@H]1O [alpha-methyl-D-glucopyranoside]
concentration in cells above plasma concentrations (SGLT1 [10]): ≤ 800 fold

B1: human SGLT1 (Homo sapiens) (protein)
chain: T3 sequence (P13866 1-664)
notes: expressed in transfected cells; host or cells: Xenopus laevis oocytes
Km [11]: 600 µM
Km [12]: 500 µM
